Experimental data reported in patent publication US20260285850A1, “SUBSTITUTED OXAZOLIDINONES AND IMIDAZOLINONES AS HERBICIDES” (FMC CORPORATION, priority 2023, published 2026).

Columns and labels:
Assay type in all cases: in vivo
[1] = system: sedge, umbrella (small-flower umbrella sedge, Cyperus difformis); experiment: Test B flooded paddy test, visual plant response rating 0-100; conditions: 250 g ai/ha, Flood, applied to paddy water, evaluated after 13 days
In short: (§1)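 Treatment occurs at the 2-leaf stage by adding compound to floodwater standing 3 cm above the soil, a level kept for the whole test. Plants stay in the greenhouse 13 days before visual comparison with controls.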

[2] = system: ducksalad (Heteranthera limosa); experiment: as above; conditions: 250 g ai/ha, Flood, applied to paddy water, evaluated after 13 days
In short: as §1

[3] = system: barnyardgrass (Echinochloa crusgalli); experiment: as above; conditions: 250 g ai/ha, Flood, applied to paddy water, evaluated after 13 days
In short: as §1

rice (Oryza sativa) = experiment: as above; conditions: 250 g ai/ha, Flood, applied to paddy water, evaluated after 13 days
In short: as §1

[4] = system: oat, wild (wild oat, Avena fatua); experiment: Test A postemergence application, visual injury rating 0-100
In short: (§2)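 Rating: visual, day 10, untreated plants as reference, 0 no effect to 100 full control. Plants were in loam-sand and were treated either preemergence via directed soil spray or postemergence at the one- to two-leaf stage.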

soybean (Glycine max) [5] = experiment: as above
In short: as §2

corn (Zea mays) [6] = experiment: as above
In short: as §2

[7] = system: palmer (palmer amaranth, palmer pigweed, Amaranthus palmeri); experiment: as above
In short: as §2

[8] = system: galium (catchweed bedstraw, Galium aparine); experiment: as above
In short: as §2

[9] = system: green foxtail (Setaria viridis); experiment: as above
In short: as §2

[10] = system: ragweed (common ragweed, Ambrosia artemisiifolia); experiment: as above
In short: as §2

[11] = system: ryegrass, Italian (italian ryegrass, Lolium multiflorum); experiment: as above
In short: as §2

[12] = system: wheat (Triticum aestivum); experiment: as above
In short: as §2

[13] = system: blackgrass (Alopecurus myosuroides); experiment: as above
In short: as §2

kochia (Bassia scoparia) [14] = experiment: as above
In short: as §2

[15] = system: barnyardgrass (Echinochloa crus-galli); experiment: as above
In short: as §2

[16] = system: oat, wild (wild oat, Avena fatua); experiment: Test A preemergence soil spray, visual injury rating 0-100; conditions: 10 days
In short: as §2

soybean (Glycine max) [17] = experiment: as above; conditions: 10 days
In short: as §2

corn (Zea mays) [18] = experiment: as above; conditions: 10 days
In short: as §2

[19] = system: palmer (palmer amaranth, palmer pigweed, Amaranthus palmeri); experiment: as above; conditions: 10 days
In short: as §2

[20] = system: green foxtail (Setaria viridis); experiment: as above; conditions: 10 days
In short: as §2

[21] = system: ragweed (common ragweed, Ambrosia artemisiifolia); experiment: as above; conditions: 10 days
In short: as §2

[22] = system: ryegrass, Italian (italian ryegrass, Lolium multiflorum); experiment: as above; conditions: 10 days
In short: as §2

[23] = system: wheat (Triticum aestivum); experiment: as above; conditions: 10 days
In short: as §2

[24] = system: blackgrass (Alopecurus myosuroides); experiment: as above; conditions: 10 days
In short: as §2

kochia (Bassia scoparia) [25] = experiment: as above; conditions: 10 days
In short: as §2

[26] = system: barnyardgrass (Echinochloa crus-galli); experiment: as above; conditions: 10 days
In short: as §2

[27] = 62 g ai/ha, postemergence, 10 days, 0 = no effect, 100 = complete control
[28] = Postemergence, 16 g ai/ha, greenhouse 10 days, 0 no effect, 100 complete control
[29] = 62 g ai/ha, 0 = no effect, 100 = complete control

## C=CC1(C(=O)NC2CC=C(C(=O)OC)C2)CN(c2cc(F)cc(F)c2)C(=O)O1 (racemic) [Compound 169]
[1]
  Plant response rating, Sedge, Umbrella (0 to 100 scale, 0 is no effect and 100 is complete control): 100
[2]
  Plant response rating, Ducksalad (0 to 100 scale, 0 is no effect and 100 is complete control): 100
[3]
  Plant response rating, Barnyardgrass (0 to 100 scale, 0 is no effect and 100 is complete control): 90
Rice (Oryza sativa)
  Plant response rating, Rice (0 to 100 scale, 0 is no effect and 100 is complete control): 95
[4]; [27]
  Oat, Wild plant response rating (0-100): 90
[4]; [28]
  Oat, Wild plant response rating (0 to 100 scale): 90
Soybean (Glycine max) [5]; [27]
  Soybean plant response rating (0-100): 70
Soybean (Glycine max) [5]; [28]
  Soybean plant response rating (0 to 100 scale): 60
Corn (Zea mays) [6]; [27]
  Corn plant response rating (0-100): 100
Corn (Zea mays) [6]; [28]
  Corn plant response rating (0 to 100 scale): 100
[7]; [27]
  Pigweed, Palmer plant response rating (0-100): 70
[7]; [28]
  Pigweed, Palmer plant response rating (0 to 100 scale): 20
[8]; [27]
  Galium plant response rating (0-100): 80
[8]; [28]
  Galium plant response rating (0 to 100 scale): 70
[9]; [27]
  Foxtail, Green plant response rating (0-100): 90
[9]; [28]
  Foxtail, Green plant response rating (0 to 100 scale): 90
[10]; [27]
  Ragweed plant response rating (0-100): 70
[10]; [28]
  Ragweed plant response rating (0 to 100 scale): 0
[11]; [27]
  Ryegrass, Italian plant response rating (0-100): 90
[11]; [28]
  Ryegrass, Italian plant response rating (0 to 100 scale): 80
[12]; [27]
  Wheat plant response rating (0-100): 90
[12]; [28]
  Wheat plant response rating (0 to 100 scale): 90
[13]; [27]
  Blackgrass plant response rating (0-100): 100
[13]; [28]
  Blackgrass plant response rating (0 to 100 scale): 100
Kochia (Bassia scoparia) [14]; [27]
  Kochia plant response rating (0-100): 80
Kochia (Bassia scoparia) [14]; [28]
  Kochia plant response rating (0 to 100 scale): 80
[15]; [27]
  Barnyardgrass plant response rating (0-100): 100
[15]; [28]
  Barnyardgrass plant response rating (0 to 100 scale): 100
[16]; 16 g ai/ha, 0 to 100 scale
  Oat, Wild plant response rating: 20
[16]; [29]
  Oat, Wild plant response rating (0-100): 50
Soybean (Glycine max) [17]; 16 g ai/ha, 0 to 100 scale
  Soybean plant response rating: 10
Soybean (Glycine max) [17]; [29]
  Soybean plant response rating (0-100): 20
Corn (Zea mays) [18]; 16 g ai/ha, 0 to 100 scale
  Corn plant response rating: 0
Corn (Zea mays) [18]; [29]
  Corn plant response rating (0-100): 60
[19]; 16 g ai/ha, 0 to 100 scale
  Pigweed, Palmer plant response rating: 0
[19]; [29]
  Pigweed, Palmer plant response rating (0-100): 50
[20]; 16 g ai/ha, 0 to 100 scale
  Foxtail, Green plant response rating: 0
[20]; [29]
  Foxtail, Green plant response rating (0-100): 90
[21]; 16 g ai/ha, 0 to 100 scale
  Ragweed plant response rating: 0
[21]; [29]
  Ragweed plant response rating (0-100): 10
[22]; 16 g ai/ha, 0 to 100 scale
  Ryegrass, Italian plant response rating: 90
[22]; [29]
  Ryegrass, Italian plant response rating (0-100): 90
[23]; 16 g ai/ha, 0 to 100 scale
  Wheat plant response rating: 80
[23]; [29]
  Wheat plant response rating (0-100): 90
[24]; 16 g ai/ha, 0 to 100 scale
  Blackgrass plant response rating: 0
[24]; [29]
  Blackgrass plant response rating (0-100): 30
Kochia (Bassia scoparia) [25]; 16 g ai/ha, 0 to 100 scale
  Kochia plant response rating: 0
Kochia (Bassia scoparia) [25]; [29]
  Kochia plant response rating (0-100): 40
[26]; 16 g ai/ha, 0 to 100 scale
  Barnyardgrass plant response rating: 10
[26]; [29]
  Barnyardgrass plant response rating (0-100): 90
